In PMC4067310, “From Pan-Reactive KV7 Channel Opener to Subtype Selective Opener/Inhibitor by Addition of a Methyl Group” (PLoS ONE, 2014):

Target: T1, KV7.4-W242L (Homo sapiens, UniProt P56696, W242L)
T1 construct: expressed in transfected cells; host or cells: Xenopus laevis oocytes injected with cRNA (pGEM-HE vector)
T1 sequence (P56696 1-695 W242L): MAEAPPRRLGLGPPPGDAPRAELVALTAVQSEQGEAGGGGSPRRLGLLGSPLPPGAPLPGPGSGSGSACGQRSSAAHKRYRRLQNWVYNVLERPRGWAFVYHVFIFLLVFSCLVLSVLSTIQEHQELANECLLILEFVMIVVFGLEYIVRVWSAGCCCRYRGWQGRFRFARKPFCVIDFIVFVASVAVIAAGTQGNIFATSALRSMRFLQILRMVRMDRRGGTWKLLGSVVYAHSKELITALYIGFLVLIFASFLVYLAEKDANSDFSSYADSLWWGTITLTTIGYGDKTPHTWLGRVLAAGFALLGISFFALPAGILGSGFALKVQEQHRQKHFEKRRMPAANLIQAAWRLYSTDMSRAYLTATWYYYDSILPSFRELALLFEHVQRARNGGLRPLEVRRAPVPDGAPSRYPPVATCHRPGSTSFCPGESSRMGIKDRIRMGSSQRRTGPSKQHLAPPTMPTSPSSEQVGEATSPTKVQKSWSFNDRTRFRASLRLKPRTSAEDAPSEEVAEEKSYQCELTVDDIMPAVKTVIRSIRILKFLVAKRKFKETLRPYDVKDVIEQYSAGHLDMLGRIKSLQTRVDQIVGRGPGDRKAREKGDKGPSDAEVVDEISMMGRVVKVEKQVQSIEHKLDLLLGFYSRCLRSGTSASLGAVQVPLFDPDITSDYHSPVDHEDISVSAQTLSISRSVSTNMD
Assay: Two-electrode voltage-clamp of mutant KV7.4-W242L in Xenopus laevis oocytes
Format: cell-based
Experimental: Point mutations were introduced using mutated oligonucleotide extension (PfuTurbo Polymerase, Stratagene, La Jolla, CA, USA) from a plasmid template harboring the cDNA of interest, digested with DpnI (Fermentas, St. Leon-Roth, Germany) and transformed into E.coli XL1 Blue cells. The construct was verified by complete DNA sequencing of the cDNA insert. cRNA was prepared from linearized human wild-type (WT) and mutant KV7 channels in the pGEM-HE vector using the T7 m-Message Machine kit (Ambion, Austin, TX, USA) according to the manufacturer's instructions.
Extraction of Xenopus laevis oocytes and injection of cRNA was performed as described previously. Oocytes were kept in Modified Barth's Saline (in mM: 88 NaCl, 1 KCl, 2.4 NaHCO3, 0.41 CaCl2, 0.82 MgSO4, 0.3 Ca(NO3)2, 15 HEPES, pH 7.4 supplemented with 100 U/mL penicillin and 100 µg/mL streptomycin) at 18°C, and currents were recorded after 2-7 days. The care of Xenopus laevis and the oocyte extraction procedure were performed according to national guidelines and approved by the Danish Animal Experiments Inspectorate.
KV7 currents in Xenopus laevis oocytes were recorded using two-electrode voltage-clamp at room temperature in Ringer buffer (in mM: 115 NaCl, 2.5 KCl, 1.8 CaCl2, 0.1 MgCl2, 10 HEPES, pH 7.4) as described previously. Data was acquired using pCLAMP 10.2 software (Molecular Devices, CA, USA) and analyzed using pCLAMP 10.2 and GraphPad Prism 4.0 (GraphPad Software Inc., CA, USA). Currents were elicited from a holding potential of −80 mV by 5 s steps to potentials between −100 and +50 mV in 10 mV increments, followed by a 2 s step to −120 mV.
SMB-1 was dissolved in dimethyl sulfoxide (DMSO) to obtain a concentrated stock solution. […]
Current – voltage (I–V) relationship curves were generated by normalizing the steady-state peak current measured at potentials between −100 and +50 mV to the current measured at +50 mV in control recordings and plotting the values against the test potential.
The voltage-dependence of activation was determined from tail current analysis using the current measured immediately after the transient capacitive current after stepping to −120 mV from potentials between −100 mV and +50 mV. […] A V0.5 was calculated for each individual experiment and statistical significance was estimated by paired two-tailed Student's t-test.
Activation kinetics for KV7.4 and KV7.4-W242L was determined by fitting the traces recorded at potentials between −30 and +50 mV to a single exponential function: [drawing 3] […]
For investigation of deactivation kinetics the tail current traces recorded at −120 mV when stepping from the channels' respective ∼V0.5 were fitted to a single exponential function (Eq. 3).

C[C@@H](c1ccc2c(c1)N(CC1CC1)CCO2)N(C)C(=O)/C=C/c1ccccc1F [SMB-1, (E)-N-[(S)-1-(4-Cyclopropylmethyl-3,4-dihydro-2H-1,4-benzoxazin-6-yl)-ethyl]-3-(2-fluoro-phenyl)-N-methyl-acrylamide]
effect on activation kinetics (10 µM): neither any significant effect
remaining activity at 10 µM (10 µM SMB-1, +50 mV, n = 5, read-out: current amplitude, % of control): 74.8 ± 4.2%
V0.5, voltage-dependence of activation in presence of compound (10 µM, control 5.5±4.5 mV, n = 5, p = 0.2): 4.3±4.9 mV
τdeact, deactivation time constant in presence of compound (10 µM, control 12.5±2.2 ms, n = 5, p = 0.5): 12.3 ± 2.2 ms
